Experimental findings from PubChem BioAssay AID248 (DTP/NCI, 2004) are described below.

This assay deals with L1210 leukemia ip in BDF1 mice, survival T/C. The assay is described as follows: NCI In Vivo Anticancer Drug Screen. Data for tumor model L1210 Leukemia (intraperitoneal) in B6D2F1 (BDF1) mice. Particulars: endpoint: mean survival time, higher = longer survival. In short, it runs like this: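 Transplantable tumor model; survival measured in treated vs vehicle control mice. Value = treated/control.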

Where [1] appears, read: dose: 50.0 mg/kg/injection, schedule: Q01DX009 (ip), vehicle: other.
The mark [2] stands for this setting: dose: 100.0 mg/kg/injection, schedule: Q01DX001 (ip), vehicle: saline.
The mark [3] stands for this setting: dose: 100.0 mg/kg/injection, schedule: Q01DX009 (ip), vehicle: Klucel (hydroxypropylcellulose) (HPC).
Setting [4] is: dose: 100.0 mg/kg/injection, schedule: Q04DX003 (ip), vehicle: Klucel (hydroxypropylcellulose) (HPC).
Where [5] appears, read: dose: 200.0 mg/kg/injection, schedule: Q04DX003 (ip), vehicle: Klucel (hydroxypropylcellulose) (HPC).
[6] abbreviates: dose: 100.0 mg/kg/injection, schedule: Q04DX003 (ip), vehicle: saline.
Where [7] appears, read: dose: 200.0 mg/kg/injection, schedule: Q04DX003 (ip), vehicle: saline.
[8] abbreviates: dose: 400.0 mg/kg/injection, schedule: Q04DX003 (ip), vehicle: saline.
[9] abbreviates: dose: 75.0 mg/kg/injection, schedule: Q01DX001 (ip), vehicle: saline.
Where [10] appears, read: dose: 150.0 mg/kg/injection, schedule: Q01DX001 (ip), vehicle: saline.
Where [11] appears, read: dose: 50.0 mg/kg/injection, schedule: Q01DX009 (ip), vehicle: Klucel (hydroxypropylcellulose) (HPC).
The mark [12] stands for this setting: dose: 200.0 mg/kg/injection, schedule: Q01DX009 (ip), vehicle: Klucel (hydroxypropylcellulose) (HPC).
[13] abbreviates: dose: 200.0 mg/kg/injection, schedule: Q01DX001 (ip), vehicle: saline.
Where [14] appears, read: dose: 400.0 mg/kg/injection, schedule: Q01DX001 (ip), vehicle: saline.

“And” between values parts separate entries of the source, which are not always exact repeats. Equal values may be shown once. Toxic doses and inconclusive results are not listed.

Regarding `CN1CCN=C1c1ccc(NC(=O)Nc2ccc(NC(=O)Nc3ccc(C4=NCCN4C)cc3)cc2)cc1`, the T/C reads like this: (dose: 6.5 mg/kg/injection, schedule: Q01DX009 (ip), vehicle: other) 108 % of control; (dose: 10.0 mg/kg/injection, schedule: Q01DX009 (ip), vehicle: other) 105 % of control; (dose: 15.0 mg/kg/injection, schedule: Q01DX009 (ip), vehicle: other) 118 % of control; (dose: 22.0 mg/kg/injection, schedule: Q01DX009 (ip), vehicle: other) 118 % of control; (dose: 33.0 mg/kg/injection, schedule: Q01DX009 (ip), vehicle: other) 162 % of control; under setting [1], 227 % of control. The T/C was 191 % of control (dose: 50.0 mg/kg/injection, schedule: Q01DX009 (ip), vehicle: saline); 109 % of control (dose: 75.0 mg/kg/injection, schedule: Q01DX001 (ip), vehicle: other); 204 % of control (dose: 75.0 mg/kg/injection, schedule: Q01DX009 (ip), vehicle: other); 191 % of control (dose: 75.0 mg/kg/injection, schedule: Q01DX009 (ip), vehicle: saline); 111 % of control (dose: 112.0 mg/kg/injection, schedule: Q01DX009 (ip), vehicle: other); 197 % of control (dose: 112.0 mg/kg/injection, schedule: Q01DX009 (ip), vehicle: saline). The T/C (dose: 150.0 mg/kg/injection, schedule: Q01DX001 (ip), vehicle: other) is 124 % of control.

Take `CCCCCCCCCCCCCC(C)NCc1ccccc1` (centres undefined): the T/C is, setting by setting: (dose: 50.0 mg/kg/injection, schedule: Q01DX001 (ip), vehicle: saline) 97 % of control; under setting [2], 88 % of control.

As for `CC(=O)Nc1cc(Cl)cc2c1-c1c(Cl)cc(Cl)cc1C2`, the T/C runs as follows: under setting [3], 92 % of control; under setting [4], 92 % of control; under setting [5], 105 % of control; (dose: 400.0 mg/kg/injection, schedule: Q04DX003 (ip), vehicle: Klucel (hydroxypropylcellulose) (HPC)) 105 % of control.

As to `CC(CN(CCNc1ccccc1)c1ccccc1)c1ccccc1` (centres undefined), the T/C reads like this: (dose: 25.0 mg/kg/injection, schedule: Q01DX009 (ip), vehicle: other) 102 % of control; under setting [1], 105 % of control; (dose: 100.0 mg/kg/injection, schedule: Q01DX009 (ip), vehicle: other) 100 % of control; under setting [6], 100 % of control; (dose: 200.0 mg/kg/injection, schedule: Q01DX009 (ip), vehicle: other) 104 % of control; under setting [7], 92 % of control. The T/C is, setting by setting: (dose: 300.0 mg/kg/injection, schedule: Q01DX009 (ip), vehicle: other) 96 % of control; under setting [8], 86 % of control.

As for `O=C1C=C(Nc2ccc(S(=O)(=O)c3ccc(NC4=CC(=O)C(=O)c5ccccc54)cc3)cc2)c2ccccc2C1=O`, the T/C under setting [9] is 93 % of control; the T/C under setting [10] was 96 % of control; the T/C (dose: 300.0 mg/kg/injection, schedule: Q01DX001 (ip), vehicle: saline) was 96 % of control.

Turning to `COc1cccc(/C=C(\S)C(=O)O)c1O`, the T/C reads like this: (dose: 100.0 mg/kg/injection, schedule: Q01DX001 (ip), vehicle: carboxymethylcellulose (CMC)) 86 % of control; (dose: 200.0 mg/kg/injection, schedule: Q01DX001 (ip), vehicle: carboxymethylcellulose (CMC)) 89 % of control; (dose: 400.0 mg/kg/injection, schedule: Q01DX001 (ip), vehicle: carboxymethylcellulose (CMC)) 89 % of control.

For `N#Cc1ccccc1.N#Cc1ccccc1.[Cl][Pd][Cl]`, the T/C is, setting by setting: under setting [11], 95 % of control; under setting [3], 95 % of control; under setting [4], 94 % of control; under setting [12], 101 % of control; under setting [5], 102 % of control.

For the compound `OC1C2(CCCCC2)CNC12C=CCCC2` (centres undefined), the T/C under setting [9] was 98 % of control and the T/C under setting [10] was 97 % of control.

Consider `CN(CCN(CCCl)c1ccc(N)cc1)c1ccc(N)cc1`, for which the T/C (dose: 10.0 mg/kg/injection, schedule: Q04DX003 (ip), vehicle: saline) was 110 % of control; the T/C (dose: 20.0 mg/kg/injection, schedule: Q04DX003 (ip), vehicle: saline) was 110 % of control; the T/C (dose: 40.0 mg/kg/injection, schedule: Q04DX003 (ip), vehicle: saline) was 93 % of control.

As to `O=[N+]([O-])c1ccc(N=C(Cl)N(c2ccccc2)c2ccccc2)cc1`, the T/C was 101 % of control under setting [2], 109 % of control under setting [13] and 109 % of control under setting [14].

`O=C(O)c1ccc([N+](=O)[O-])cc1C(=O)O`: the T/C reads like this: (dose: 87.5 mg/kg/injection, schedule: Q01DX001 (ip), vehicle: saline) 104 % of control; (dose: 100.0 mg/kg/injection, schedule: Q01DX009 (ip), vehicle: saline) 100 % of control; under setting [4], 96 % of control; (dose: 175.0 mg/kg/injection, schedule: Q01DX001 (ip), vehicle: saline) 100 % of control; (dose: 200.0 mg/kg/injection, schedule: Q01DX009 (ip), vehicle: saline) 93 % of control; under setting [5], 87 % of control. Also, where the note is “dose: 350.0 mg/kg/injection, schedule: Q01DX001 (ip), vehicle: saline”, the T/C is 108 % of control.

With `CCOC(=O)c1cc(C(=O)OCC)c[n+](CCCl)c1`, the T/C (dose: 8.0 mg/kg/injection, schedule: Q01DX010 (ip), vehicle: other) was 104 % of control; the T/C (dose: 16.0 mg/kg/injection, schedule: Q01DX010 (ip), vehicle: other) was 104 % of control; the T/C (dose: 32.0 mg/kg/injection, schedule: Q01DX010 (ip), vehicle: other) was 111 % of control; the T/C (dose: 64.0 mg/kg/injection, schedule: Q01DX010 (ip), vehicle: other) is 109 % of control; the T/C (dose: 64.0 mg/kg/injection, schedule: Q01DX Z (ip), vehicle: other) is 105 % of control.

Regarding `COc1ccc(OC)c(NC(=S)N/N=C(\C)c2ccc(O)c(C)c2)c1`, the T/C (dose: 12.5 mg/kg/injection, schedule: Q04DX002 (ip), vehicle: Klucel (hydroxypropylcellulose) (HPC)) is 97 % of control and the T/C (dose: 25.0 mg/kg/injection, schedule: Q04DX002 (ip), vehicle: Klucel (hydroxypropylcellulose) (HPC)) was 115 % of control.

As to `CCCCN(Cl)CCCC`, the T/C (dose: 100.0 mg/kg/injection, schedule: Q04DX002 (ip), vehicle: saline + alcohol) is 101 % of control.

For the compound `Cc1ccc(C(=O)C(F)(F)C(F)(F)C(F)(F)C(F)(F)C(F)(F)C(F)(F)C(F)(F)F)cc1`, the T/C under setting [2] is 105 % of control; the T/C under setting [6] is 93 % of control; the T/C under setting [13] is 102 % of control; the T/C under setting [7] was 95 % of control; the T/C under setting [14] was 103 % of control; the T/C under setting [8] is 92 % of control.

In the case of `Cc1cc(Nc2ccc(C)c(C)c2)nc(N)n1`, the T/C (dose: 100.0 mg/kg/injection, schedule: Q01DX Z (ip), vehicle: methylcellulose (MC)) was 108 % of control.

As to `CCOC(=O)c1ccc(NC(=O)Nc2cc(Cl)ccc2C)cc1`, the T/C is 103 % of control (dose: 25.0 mg/kg/injection, schedule: Q01DX009 (ip), vehicle: Klucel (hydroxypropylcellulose) (HPC)); 108 % of control under setting [11]; 87 % of control and 89 % of control under setting [3]; 98 % of control under setting [12].

Turning to `FC1(F)SC2CC/C=C\CCC2C1(F)F` (centres undefined), the T/C was 90 % of control (dose: 0.75 mg/kg/injection, schedule: Q04DX003 (ip), vehicle: Klucel (hydroxypropylcellulose) (HPC)); 96 % of control (dose: 1.5 mg/kg/injection, schedule: Q01DX009 (ip), vehicle: Klucel (hydroxypropylcellulose) (HPC)); 98 % of control (dose: 1.5 mg/kg/injection, schedule: Q04DX003 (ip), vehicle: Klucel (hydroxypropylcellulose) (HPC)); 102 % of control (dose: 3.0 mg/kg/injection, schedule: Q01DX009 (ip), vehicle: Klucel (hydroxypropylcellulose) (HPC)); 102 % of control (dose: 3.0 mg/kg/injection, schedule: Q04DX003 (ip), vehicle: Klucel (hydroxypropylcellulose) (HPC)); 86 % of control (dose: 3.12 mg/kg/injection, schedule: Q04DX003 (ip), vehicle: Klucel (hydroxypropylcellulose) (HPC)). For the same compound, for the setting “dose: 12.0 mg/kg/injection, schedule: Q04DX003 (ip), vehicle: Klucel (hydroxypropylcellulose) (HPC)”, the T/C is 88 % of control.
